Measurements taken from patent publication US7265120B2, “Pyrazine derivatives and pharmaceutical use thereof” (Astellas Pharma Inc., priority 2004, dated 2007).

melting point | SMILES
213 to 215 °C | CC(C)n1nc(-c2nc(C#C[Si](C)(C)C)c(N)nc2-c2ccccc2)ccc1=O
209 to 211 °C | CC(C)n1nc(-c2nc(C3=CCN(C)CC3)c(N)nc2-c2ccccc2)ccc1=O
225 to 227 °C | CC(C)n1nc(-c2ncc(O)nc2-c2ccccc2)ccc1=O [Example 1, 6-(5-hydroxy-3-phenyl-2-pyrazinyl)-2-isopropyl-3(2H)-pyridazinone]
> 250 °C | Cc1nc(-c2ccc(=O)n(C(C)C)n2)c(-c2ccccc2)nc1O [Example 2, 6-(5-Hydroxy-6-methyl-3-phenyl-2-pyrazinyl)-2-isopropyl-3(2H)-pyridazinone]
208 to 209.5 °C | Cc1nc(-c2ccc(=O)n(C(C)C)n2)c(-c2ccccc2)nc1N [Example 3, 6-(5-amino-6-methyl-3-phenyl-2-pyrazinyl)-2-isopropyl-3(2H)-pyridazinone]
201 to 202 °C | CC(C)n1nc(-c2nc(C#N)c(C#N)nc2-c2ccccc2)ccc1=O [Example 4, 5-(1-isopropyl-6-oxo-1,6-dihydro-3-pyridazinyl)-6-phenyl-2,3-pyrazinedicarbonitrile]
231 to 233 °C | CC(C)n1nc(-c2nc(C#N)c(N)nc2-c2ccccc2)ccc1=O [Example 6, 3-amino-6-(1-isopropyl-6-oxo-1,6-dihydro-3-pyridazinyl)-5-phenyl-2-pyrazinecarbonitrile]
224 to 226 °C | CC(C)n1nc(-c2nc(C(N)=O)c(N)nc2-c2ccccc2)ccc1=O [Example 7, 3-amino-6-(1-isopropyl-6-oxo-1,6-dihydro-3-pyridazinyl)-5-phenyl-2-pyrazinecarboxamide]
233 to 235 °C | CC(C)n1nc(-c2nc(C(=O)O)c(N)nc2-c2ccccc2)ccc1=O [Example 8, 3-amino-6-(1-isopropyl-6-oxo-1,6-dihydro-3-pyridazinyl)-5-phenyl-2-pyrazinecarboxylic acid]
204 to 206 °C | CC(C)n1nc(-c2ncc(N)nc2-c2ccccc2)ccc1=O [Example 9, 6-(5-amino-3-phenyl-2-pyrazinyl)-2-isopropyl-3(2H)-pyridazinone]
201 to 203 °C | CCn1nc(-c2nc(C#N)c(C#N)nc2-c2ccccc2)ccc1=O [Example 11, 5-(1-Ethyl-6-oxo-1,6-dihydro-3-pyridazinyl)-6-phenyl-2,3-pyrazinedicarbonitrile]
165.5 to 167.5 °C | CCn1nc(-c2nc(C#N)c(NCc3ccc(OC)cc3)nc2-c2ccccc2)ccc1=O [Example 12, 6-(1-Ethyl-6-oxo-1,6-dihydro-3-pyridazinyl)-3-[(4-methoxybenzyl)amino]-5-phenyl-2-pyrazinecarbonitrile]
> 250 °C | CCn1nc(-c2nc(C#N)c(N)nc2-c2ccccc2)ccc1=O [Example 13, 3-Amino-6-(1-ethyl-6-oxo-1,6-dihydro-3-pyridazinyl)-5-phenyl-2-pyrazinecarbonitrile]
> 250 °C | CCn1nc(-c2nc(C(N)=O)c(N)nc2-c2ccccc2)ccc1=O [Example 14, 3-Amino-6-(1-ethyl-6-oxo-1,6-dihydro-3-pyridazinyl)-5-phenyl-2-pyrazinecarboxamide]
210 to 212 °C | Cn1nc(-c2nc(C#N)c(C#N)nc2-c2ccccc2)ccc1=O [Example 15, 5-(1-Methyl-6-oxo-1,6-dihydro-3-pyridazinyl)-6-phenyl-2,3-pyrazinedicarbonitrile]
166.5 to 168 °C | COc1ccc(CNc2nc(-c3ccccc3)c(-c3ccc(=O)n(C)n3)nc2C#N)cc1 [Example 16, 3-[(4-Methoxybenzyl)amino]-6-(1-methyl-6-oxo-1,6-dihydro-3-pyridazinyl)-5-phenyl-2-pyrazinecarbonitrile]
> 250 °C | Cn1nc(-c2nc(C(N)=O)c(N)nc2-c2ccccc2)ccc1=O [Example 18, 3-Amino-6-(1-methyl-6-oxo-1,6-dihydro-3-pyridazinyl)-5-phenyl-2-pyrazinecarboxamide]
238 °C (dec.) | Cn1nc(-c2nc(C(=O)O)c(N)nc2-c2ccccc2)ccc1=O [Example 19, 3-Amino-6-(1-methyl-6-oxo-1,6-dihydro-3-pyridazinyl)-5-phenyl-2-pyrazinecarboxylic acid]
202 to 204 °C | Cn1nc(-c2ncc(N)nc2-c2ccccc2)ccc1=O [Example 20, 6-(5-Amino-3-phenyl-2-pyrazinyl)-2-methyl-3(2H)-pyridazinone]
238 to 241 °C | CC(C)n1nc(-c2nc(N)c(C#N)nc2-c2ccccc2)ccc1=O [Example 21, 3-Amino-5-(1-isopropyl-6-oxo-1,6-dihydro-3-pyridazinyl)-6-phenyl-2-pyrazinecarbonitrile]
170 to 172 °C | COc1nc(-c2ccccc2)c(-c2ccc(=O)n(C(C)C)n2)nc1C#N [Example 22, 6-(1-isopropyl-6-oxo-1,6-dihydro-3-pyridazinyl)-3-methoxy-5-phenyl-2-pyrazinecarbonitrile]
> 250 °C | CC(C)n1nc(-c2nc(C#N)c(C(N)=O)nc2-c2ccccc2)ccc1=O [Example 23, 3-Cyano-5-(1-isopropyl-6-oxo-1,6-dihydro-3-pyridazinyl)-6-phenyl-2-pyrazinecarboxamide]
195 to 197 °C | CC(C)n1nc(-c2nc(C(N)=O)c(C#N)nc2-c2ccccc2)ccc1=O [Example 23, 3-Cyano-6-(1-isopropyl-6-oxo-1,6-dihydro-3-pyridazinyl)-5-phenyl-2-pyrazinecarboxamide]
170 to 171 °C | COC(=O)c1nc(-c2ccc(=O)n(C(C)C)n2)c(-c2ccccc2)nc1OC [Example 24, Methyl 6-(1-isopropyl-6-oxo-1,6-dihydro-3-pyridazinyl)-3-methoxy-5-phenyl-2-pyrazinecarboxylate]
198 to 200 °C | CC(C)n1nc(-c2nc(C#N)c(NC=O)nc2-c2ccccc2)ccc1=O [Example 25, [3-Cyano-5-(1-isopropyl-6-oxo-1,6-dihydro-3-pyridazinyl)-6-phenyl-2-pyrazinyl]formamide]
206 to 208 °C | CC(C)n1nc(-c2nc(NC=O)c(C#N)nc2-c2ccccc2)ccc1=O [Example 25, [3-Cyano-6-(1-isopropyl-6-oxo-1,6-dihydro-3-pyridazinyl)-5-phenyl-2-pyrazinyl]formamide]
> 250 °C | CC(C)n1nc(-c2nc(C(N)=S)c(N)nc2-c2ccccc2)ccc1=O [Example 26, 3-amino-6-(1-isopropyl-6-oxo-1,6-dihydro-3-pyridazinyl)-5-phenyl-2-pyrazinecarbothioamide]
238 to 240 °C | Cc1csc(-c2nc(-c3ccc(=O)n(C(C)C)n3)c(-c3ccccc3)nc2N)n1 [Example 27, 6-[5-amino-6-(4-methyl-thiazol-2-yl)-3-phenyl-2-pyrazinyl]-2-isopropyl-3(2H)-pyridazinone]
240 to 242 °C | CC(C)n1nc(-c2nc(-c3nc(-c4ccccc4)cs3)c(N)nc2-c2ccccc2)ccc1=O [Example 28, 6-[5-Amino-3-phenyl-6-(4-phenyl-thiazol-2-yl)-2-pyrazinyl]-2-isopropyl-3(2H)-pyridazinone]
217 to 220 °C | CC(C)n1nc(-c2nc(N)c(C(N)=O)nc2-c2ccccc2)ccc1=O [Example 29, 3-Amino-5-(1-isopropyl-6-oxo-1,6-dihydro-3-pyridazinyl)-6-phenyl-2-pyrazinecarboxamide]
